Measured values published in patent US20210188856A1, “CRYSTAL FORM OF HYDROCHLORIDE OF PYRAZOLOHETEROARYL DERIVATIVE AND PREPARATION METHOD” (JIANGSU HENGRUI MEDICINE CO., LTD., priority 2018, published 2021).

Tests used:
Log D = assay type: physicochemical
[1] = test system: peripheral blood mononuclear cells (PBMC); assay: Stimulation of IFN-α secretion from PBMC; assay type: cell-based, human; settings: 24 hours, lowest concentration giving cytokine level at least 3 times the minimum detection limit
Protocol: The ability of the compound of the present disclosure to stimulate the secretion of IFN-α from PBMC was determined by the following experimental method:
The compound was diluted with pure DMSO to a maximum concentration of 5 mM, and a total of 9 points were obtained by a 4-fold gradient dilution. 4 μL of the compound was then added to 196 μL of RMPI 1640 medium containing 10% FBS and mixed well. 50 μL of the mixture was taken from each well and added to a new 96-well cell culture plate.
All reagents were equilibrated to room temperature. 60 mL of blood and PBS+2% FBS were added to a 250 mL culture flask, gently pipetted, mixed well and diluted. 15 mL of lymphocyte separation solution Ficoll-Paque PREMIUM and then 30 mL of diluted blood were added to a 50 mL PBMC centrifuge tube SepMate™-50. The mixture was centrifuged at 1200 g for 10 minutes at room temperature. The supernatant was taken and then centrifuged at 300 g for 8 minutes. The cells were re-suspended in the RMPI 1640 medium containing 10% FBS and counted, and the number of PBMCs was adjusted to 3.33×10^6 cells/mL. 150 μL of the cell solution was added to the plate added with the compound, and incubated in an incubator at 37° C., 5.0% CO2 for 24 hours.
The cell culture plate was placed in a centrifuge, and centrifuged at 1200 rpm for 10 minutes at room temperature. […]
The plate was read with PHERAStar in the HTRF mode. […]

human TLR7 = molecular target: T1, human TLR7 (Homo sapiens, UniProt Q9NYK1); assay: Agonistic effect on human TLR7 (HEK-Blue hTLR7 cells); assay type: cell-based
T1 construct: host or cells: HEK-Blue hTLR7 (HEK293-derived) stably transfected cells
T1 sequence (Q9NYK1 27-1049): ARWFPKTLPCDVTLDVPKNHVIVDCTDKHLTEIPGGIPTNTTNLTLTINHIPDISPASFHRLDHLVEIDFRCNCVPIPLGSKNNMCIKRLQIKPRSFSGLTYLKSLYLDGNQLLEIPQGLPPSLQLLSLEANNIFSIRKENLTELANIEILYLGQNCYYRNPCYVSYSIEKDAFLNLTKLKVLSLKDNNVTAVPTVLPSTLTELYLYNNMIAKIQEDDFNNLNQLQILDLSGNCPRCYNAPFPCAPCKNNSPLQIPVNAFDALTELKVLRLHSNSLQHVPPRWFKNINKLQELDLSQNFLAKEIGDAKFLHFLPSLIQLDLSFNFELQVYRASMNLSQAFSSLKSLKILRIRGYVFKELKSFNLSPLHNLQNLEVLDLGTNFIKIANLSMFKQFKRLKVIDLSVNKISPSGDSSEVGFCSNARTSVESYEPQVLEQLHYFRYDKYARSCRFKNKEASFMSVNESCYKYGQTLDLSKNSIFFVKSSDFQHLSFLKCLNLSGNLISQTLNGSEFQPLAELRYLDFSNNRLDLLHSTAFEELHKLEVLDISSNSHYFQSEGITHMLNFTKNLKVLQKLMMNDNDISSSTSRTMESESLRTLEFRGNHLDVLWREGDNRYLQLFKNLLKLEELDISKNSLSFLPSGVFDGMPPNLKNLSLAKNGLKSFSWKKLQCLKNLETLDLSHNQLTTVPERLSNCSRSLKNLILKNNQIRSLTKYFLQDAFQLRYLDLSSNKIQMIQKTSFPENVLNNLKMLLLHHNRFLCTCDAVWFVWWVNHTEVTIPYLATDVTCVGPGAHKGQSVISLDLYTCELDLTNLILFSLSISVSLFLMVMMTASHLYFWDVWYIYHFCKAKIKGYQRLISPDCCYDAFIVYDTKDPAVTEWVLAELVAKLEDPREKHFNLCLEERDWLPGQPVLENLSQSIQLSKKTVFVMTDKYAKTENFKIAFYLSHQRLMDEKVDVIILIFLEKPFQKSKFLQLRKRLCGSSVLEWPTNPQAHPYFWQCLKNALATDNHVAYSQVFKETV
Protocol: The agonistic effect of the compound represented by formula (I) on the hTLR7 protein expressed in HEK-Blue™ hTLR7 stably transfected cells was determined by the following experimental method:
A bag of HEK-Blue detection dry powder was dissolved in 50 mL of water free of endotoxin, and the solution was then placed in an incubator at 37° C. for 10 minutes followed by sterile filtration to prepare a HEK-Blue detection medium. The compound was firstly formulated into a 20 mM stock solution, then diluted with pure DMSO to a maximum concentration of 6×10^6 nM, and a total of 10 points were obtained by a 3-fold gradient dilution.
The above formulated compound was firstly diluted 20-fold with the medium, then 20 μL of the diluted compound was added to each well. The supernatant was removed from the HEK-Blue™ hTLR7 cells, to which 2-5 mL of pre-warmed PBS was then added. The cells were placed in an incubator for 1-2 minutes, gently pipetted, and counted by trypan blue staining. The cells were re-suspended in the HEK-Blue detection medium, and the concentration was adjusted to 2.2×10^5 cells/mL. […]
The plate was read with a microplate reader at a wavelength of 620 nm. The corresponding OD values were obtained, and the EC50 value of the compound was calculated by Graphpad Prism.

CCCCOc1nc(N)c2cnn(Cc3ccc(CN4CCCC4)cc3)c2n1 [compound represented by formula (I), 6-Butoxy-1-(4-(pyrrolidin-1-ylmethyl)benzyl)-1H-pyrazolo[3,4-d]pyrimidin-4-amine]
Log D (Log D): 1.21 | MEC (minimal effective concentration), IFN-α secretion from PBMC [1]: 6 nM | agonistic effect on human TLR7 (in words) (human TLR7; HEK-Blue hTLR7 cells): significant agonistic effect | EC50 (human TLR7; HEK-Blue hTLR7 stably transfected cells): 0.028 µM
